In brackets after ≈: the same amount, converted by molar mass.

In ChEMBL document CHEMBL4699440, “Comprehensive review on the anti-bacterial activity of 1,2,3-triazole hybrids” (Eur J Med Chem, 2019) one finds MIC and IC50 data, which are given here for eleven compounds.

Test [1] relates to Proteus vulgaris. In words: Antibacterial activity against Proteus vulgaris ATCC […] incubated for 24 hrs by broth dilution method. In kind it is functional. A general note: Dilution methods test growth across graded concentrations, often in twofold steps.
In test [2] the test system is Bacillus spizizenii. The test can be described thus: Antibacterial activity against Bacillus subtilis ATCC 6633 incubated for 24 hrs by broth dilution method. The class given is functional.
Test [3] relates to Escherichia coli. In words: Antibacterial activity against Escherichia coli ATCC 25922 incubated for 24 hrs by broth dilution method. The class given is functional.
Test [4] deals with Staphylococcus aureus. The test can be described thus: Antibacterial activity against Staphylococcus aureus ATCC 9144 incubated for 24 hrs by broth dilution method. The class given is functional.
Test [5] deals with Escherichia coli. The test can be described thus: Antibacterial activity against Escherichia coli JM109 after overnight incubation by CLSI M7-A9 based method. In kind it is functional.
Test [6] deals with Staphylococcus aureus. In words: Antibacterial activity against Staphylococcus aureus CIP 6525 after overnight incubation by CLSI M7-A9 based method. The class given is functional.
Test [7] relates to Escherichia coli. In words: Antibacterial activity against Escherichia coli ATCC 25922 after overnight incubation by CLSI M7-A9 based method. In kind it is functional.
Test [8] concerns Enterococcus faecalis. In words: Antibacterial activity against Enterococcus faecalis ATCC 29212 after overnight incubation by CLSI M7-A9 based method. The class given is functional.
Test [9] deals with Pseudomonas aeruginosa. The test can be described thus: Antibacterial activity against Pseudomonas aeruginosa MTCC 2453 incubated overnight by broth dilution technique. In kind it is functional, organism-based.
Test [10] concerns Enterococcus faecalis. The test can be described thus: Antibacterial activity against Enterococcus faecalis MTCC 439 incubated overnight by broth dilution technique. In kind it is functional, organism-based.
In test [11] the test system is Escherichia coli. The test can be described thus: Antibacterial activity against Escherichia coli ATCC 25922 incubated overnight by broth dilution technique. In kind it is functional, organism-based.
For test [12], the system named is Klebsiella pneumoniae. The test can be described thus: Antibacterial activity against Klebsiella pneumoniae ATCC 700603 incubated overnight by broth dilution technique. The class given is functional, organism-based.
The test system of test [13] is Streptococcus pneumoniae. The test can be described thus: Antibacterial activity against Streptococcus pneumoniae MTCC 655 incubated overnight by broth dilution technique. In kind it is functional, organism-based.
The subject of test [14] is Salmonella enterica. In words: Antibacterial activity against Salmonella enterica MTCC 3224 incubated overnight by broth dilution technique. In kind it is functional, organism-based.
In test [15] the test system is Aspergillus brasiliensis. The test can be described thus: Antifungal activity against Aspergillus brasiliensis MTCC 1344 incubated for 7 days by microdilution method. The class given is functional. Conditions: MTCC 1344, 168 h, time 7 day.
Test [16] has as its system Candida albicans. In words: Antibacterial activity against Candida albicans MTCC 227 by serial dilution method. In kind it is functional.
The subject of test [17] is Candida albicans. The test can be described thus: Antifungal activity against Candida albicans MTCC 227 incubated for 2 days by microdilution method. Conditions: MTCC 227, 48 h, time 2 day. In kind it is functional.
The test system of test [18] is Aspergillus niger. In words: Antibacterial activity against Aspergillus niger ATCC 9029 incubated for 24 hrs by broth microdilution method. In kind it is functional.
The subject of test [19] is Aspergillus brasiliensis. The test can be described thus: Antifungal activity against Aspergillus brasiliensis ATCC 16404 incubated for 24 hrs by microdilution method. In kind it is functional.
Test [20] relates to Candida albicans. In words: Antifungal activity against Candida albicans ATCC 50193 incubated for 24 hrs by microdilution method. The class given is functional.
For test [21], the system named is Candida albicans. The test can be described thus: Antifungal activity against Candida albicans ATCC 2091 incubated for 24 hrs by broth microdilution method. In kind it is functional.
Test [22] relates to Aspergillus niger. In words: Antibacterial activity against Aspergillus niger MTCC 8189 by serial dilution method. The class given is functional.

Regarding `O=C(/C=C1\C(=O)N(Cc2cn(Cc3ccccc3)nn2)c2ccc(Br)cc21)c1cc(Cl)cc(Cl)c1OCc1cn(Cc2ccccc2)nn1`, the MIC in test [1], in test [2], in test [3] and in test [4] was 1.56 µg/mL (≈ 2.06 µM) in each case.

`C[C@H](c1ccccc1)N(CC(N)=O)C(=O)CN(C(=O)CN(Cc1cn(Cc2ccccc2)n[n+]1C)C(=O)CN(C(=O)CN(C(=O)CN(Cc1cn(Cc2ccccc2)n[n+]1C)C(=O)CN(C(=O)CN(C(=O)CNCc1cn(Cc2ccccc2)n[n+]1C)[C@H](C)c1ccccc1)[C@H](C)c1ccccc1)[C@H](C)c1ccccc1)[C@H](C)c1ccccc1)[C@H](C)c1ccccc1`: the MIC in test [5], in test [6], in test [7] and in test [8] was above 1.6 µg/mL throughout.

Regarding `C[C@H](c1ccccc1)N(CC(N)=O)C(=O)CN(C(=O)CN(Cc1cn(CCN)n[n+]1C)C(=O)CN(C(=O)CN(C(=O)CNCc1cn(CCN)n[n+]1C)[C@H](C)c1ccccc1)[C@H](C)c1ccccc1)[C@H](C)c1ccccc1`, the MIC in [5], in test [6], in [7] and in test [8] was above 1.6 µg/mL in each case.

Regarding `O=C(/C=C1\C(=O)N(Cc2cn(Cc3ccccc3)nn2)c2ccccc21)c1cc(Cl)cc(Cl)c1OCc1cn(Cc2ccccc2)nn1`, the MIC in test [1], in [2], in test [3] and in test [4] was 1.56 µg/mL (≈ 2.31 µM) in each case.

With `Clc1ccc(-n2cc(COc3cccc4cccnc34)nn2)cc1`, the IC50 in [9], in test [10], in test [11], in test [12], in test [13] and in [14] was 106 µg/mL (≈ 315 µM) in each case.

Regarding `NS(=O)(=O)c1ccc(-n2cc(COc3cccc4cccnc34)nn2)cc1`, the IC50 in test [9], in test [10], in test [11], in [12], in test [13] and in [14] was 106 µg/mL (≈ 278 µM) each time.

As to `OC(Cn1cncn1)(Cn1cncn1)c1ccc(F)cc1F` [FLUCONAZOLE], the MIC was determined as 0.0716 µM (≈ 0.0219 µg/mL) in test [15]; 5.1 µM (≈ 1.56 µg/mL) in test [16]; 0.0408 µM (≈ 0.0125 µg/mL) in test [17]; 8 µg/mL (≈ 26.1 µM) in test [18]; 4 µg/mL (≈ 13.1 µM) in test [19]; 1 µg/mL (≈ 3.27 µM) in test [20]. Also, the MIC in test [21] amounted to 8 µg/mL (≈ 26.1 µM); in test [22], 5.1 µM (≈ 1.56 µg/mL).

For `C[C@H](c1ccccc1)N(CC(N)=O)C(=O)CN(C(=O)CN(Cc1cn(CC2CCCCC2)n[n+]1C)C(=O)CN(C(=O)CN(C(=O)CN(Cc1cn(CC2CCCCC2)n[n+]1C)C(=O)CN(C(=O)CN(C(=O)CNCc1cn(CC2CCCCC2)n[n+]1C)[C@H](C)c1ccccc1)[C@H](C)c1ccccc1)[C@H](C)c1ccccc1)[C@H](C)c1ccccc1)[C@H](C)c1ccccc1`, the MIC in test [5], in test [6], in test [7] and in test [8] was above 1.6 µg/mL in each case.

With `C[C@H](c1ccccc1)N(CC(N)=O)C(=O)CN(C(=O)CN(Cc1cn(CC2CCCCC2)nn1)C(=O)CN(C(=O)CN(C(=O)CNCc1cn(CC2CCCCC2)nn1)[C@H](C)c1ccccc1)[C@H](C)c1ccccc1)[C@H](C)c1ccccc1`, the MIC in test [5], in [6], in test [7] and in test [8] was above 1.6 µg/mL throughout.

As to `Fc1ccc(-n2cc(COc3cccc4cccnc34)nn2)cc1`, the IC50 in [9], in [10], in test [11], in [12], in [13] and in test [14] was 106 µg/mL (≈ 331 µM) throughout.

In the case of `C[C@H](c1ccccc1)N(CC(N)=O)C(=O)CN(C(=O)CN(Cc1cn(CCN)nn1)C(=O)CN(C(=O)CN(C(=O)CN(Cc1cn(CCN)nn1)C(=O)CN(C(=O)CN(C(=O)CN(Cc1cn(CCN)nn1)C(=O)CN(C(=O)CN(C(=O)CNCc1cn(CCN)nn1)[C@H](C)c1ccccc1)[C@H](C)c1ccccc1)[C@H](C)c1ccccc1)[C@H](C)c1ccccc1)[C@H](C)c1ccccc1)[C@H](C)c1ccccc1)[C@H](C)c1ccccc1`, the MIC in test [5], in test [6], in test [7] and in [8] was above 1.6 µg/mL in each case.

The MIC is the least concentration at which growth counts as inhibited. What is called IC50 is the concentration at which inhibition is half-maximal. High values mean a need for much substance, low ones inhibition by little substance.
